#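 The compound was tested at five concentrations on cells cultured in 96-well plates, with a 48-hour exposure period. Abbreviation: GI50, concentration required for 50% inhibition of growth. Definition used: TGI = concentration required for complete inhibition of growth.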
# Columns and labels:
# Assay in all cases: NCI anticancer screen, dose series, 48 h
# COLO 205 colon = test system: COLO 205 colon
# HCT-15 colon = test system: HCT-15 colon
# HL-60(TB) leukemia = test system: HL-60(TB) leukemia
# M14 melanoma = test system: M14 melanoma
# MDA-MB-231 breast = test system: MDA-MB-231 breast
# OVCAR-4 ovarian = test system: OVCAR-4 ovarian
# SNB-19 CNS = test system: SNB-19 CNS
# SNB-75 CNS = test system: SNB-75 CNS
# T-47D breast = test system: T-47D breast
# U251 CNS = test system: U251 CNS
Structure (SMILES),GI50 (COLO 205 colon) [µM],TGI (COLO 205 colon) [µM],GI50 (HCT-15 colon) [µM],TGI (HCT-15 colon) [µM],GI50 (HL-60(TB) leukemia) [µM],TGI (HL-60(TB) leukemia) [µM],GI50 (M14 melanoma) [µM],TGI (M14 melanoma) [µM],GI50 (MDA-MB-231 breast) [µM],TGI (MDA-MB-231 breast) [µM],GI50 (OVCAR-4 ovarian) [µM],TGI (OVCAR-4 ovarian) [µM],GI50 (SNB-19 CNS) [µM],TGI (SNB-19 CNS) [µM],GI50 (SNB-75 CNS) [µM],TGI (SNB-75 CNS) [µM],GI50 (T-47D breast) [µM],TGI (T-47D breast) [µM],GI50 (U251 CNS) [µM],TGI (U251 CNS) [µM]
COc1ccc(NC(=O)CSC2=C(Nc3cccc(Br)c3)C(=O)N(Cc3ccccc3)C2=O)cc1Cl,> 100,> 100,> 100,> 100,3.41,> 100,> 100,> 100,> 100,> 100,> 100,> 100,> 100,> 100,> 100,> 100,> 100,> 100,35.5,> 100
O=[N+]([O-])c1cc(Cl)c2[nH]c3c(Cl)cc([N+](=O)[O-])cc3c2c1,0.469,1.99,0.355,> 100,0.304,6.34,0.458,> 54.7,0.482,8.89,0.263,> 100,0.357,> 100,0.511,9.35,0.254,> 100,0.286,5.43
COc1cc(OC)c(C(=O)/C=C/c2cc3c(cc2OCc2ccccc2)OC(C)(C)CC3)cc1CC=C(C)C,3.97,8.9,3.84,9.68,5.43,17.1,3.63,9.43,10.1,> 25,4.06,14.3,6.22,17.3,2.44,13.1,3.74,19.1,4.03,10.8
CN(CCCCCl)P(=O)(OCCS(=O)(=O)CC(NC(=O)CCC(N)C(=O)O)C(=O)NC(C(=O)O)c1ccccc1)OCC1OC(n2ccc(N)nc2=O)C(F)(F)C1O (centres undefined),0.912,> 100,8.92,> 100,0.0339,5.23,0.0369,0.435,14.2,> 100,> 100,> 100,0.143,> 100,0.825,> 25.2,1.33,> 100,0.23,> 100
O=C1CC2C(=O)c3ccccc3CC2c2ccccc21 (centres undefined),,,,> 100,,62.6,,> 100,,> 100,,> 100,,> 100,,75,,87.7,,> 100

# Reference: PubChem BioAssay (NCI)
